Measured values from the supplement of paper PMC10307832.

Tests used:
Test in all cases: relative viability (nuclei count vs DMSO), 5 days (fraction); higher = more cells survive
[1] = compound: CC1=CC=C(C=C1)C(=O)CN2C3=C(CCCC3)SC2=N [Pifithrin_alpha] + Cc1nc(NC(=O)N2CCC[C@H]2C(N)=O)sc1-c1ccnc(C(C)(C)C(F)(F)F)c1 [Alpelisib] (partner 2 µM)
Summary of the method: (§1)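 Five library-drug doses in √10 steps were combined with a fixed anchor-drug dose, or a single drug was given alone, by pin tool to lung cancer cell lines in 1536-well plates the day after seeding. Nuclei were stained and counted after 5 days. Relative viability is the nuclei count in treated wells over that in vehicle wells, taken as the median of duplicate plates.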

[2] = compound: CNC(=O)c1ccccc1Sc1ccc2c(/C=C/c3ccccn3)n[nH]c2c1 [Axitinib] + Nc1nc2[nH]cc(CCc3ccc(C(=O)N[C@@H](CCC(=O)O)C(=O)O)cc3)c2c(=O)[nH]1 [Pemetrexed] (partner 0.2 µM)
Summary of the method: as §1

[3] = compound: CC1=CC=C(C=C1)C(=O)CN2C3=C(CCCC3)SC2=N [Pifithrin_alpha] + Cc1nc(Nc2ncc(C(=O)Nc3c(C)cccc3Cl)s2)cc(N2CCN(CCO)CC2)n1 [Dasatinib] (partner 0.075 µM)
Summary of the method: as §1

[4] = compound: CNC(=O)c1ccccc1Sc1ccc2c(/C=C/c3ccccn3)n[nH]c2c1 [Axitinib] + COc1cccc2cc(-c3nc([C@H]4CC[C@H](C(=O)O)CC4)n4ncnc(N)c34)[nH]c12 [OSI-027] (partner 0.5 µM)
Summary of the method: as §1

Cell Line | relative viability ([1]; first compound 1 µM) | relative viability ([1]; first compound 3.162 µM) | relative viability ([1]; first compound 10 µM) | relative viability ([1]; first compound 31.62 µM) | relative viability ([1]; first compound 100 µM) | relative viability ([2]; first compound 0.005 µM) | relative viability ([2]; first compound 0.01581 µM) | relative viability ([2]; first compound 0.05 µM) | relative viability ([2]; first compound 0.1581 µM) | relative viability ([2]; first compound 0.5 µM) | relative viability ([3]; first compound 1 µM) | relative viability ([3]; first compound 3.162 µM) | relative viability ([3]; first compound 10 µM) | relative viability ([3]; first compound 31.62 µM) | relative viability ([3]; first compound 100 µM) | relative viability ([4]; first compound 0.005 µM) | relative viability ([4]; first compound 0.01581 µM) | relative viability ([4]; first compound 0.05 µM) | relative viability ([4]; first compound 0.1581 µM) | relative viability ([4]; first compound 0.5 µM)
NCI-H2170 | 0.799 | 0.821 | 0.756 | 0.537 | 0.744 | 0.281 | 0.252 | 0.261 | 0.27 | 0.27 | 0.68 | 0.467 | 0.512 | 0.39 | 0.404 | 0.721 | 0.686 | 0.703 | 0.715 | 0.631
EKVX | 0.918 | 0.743 | 0.567 | 0.583 | 0.548 | 0.428 | 0.376 | 0.457 | 0.417 | 0.398 | – | 0.461 | 0.352 | 0.404 | 0.384 | 0.708 | 0.708 | 0.746 | 0.737 | 0.69
NCI-H1563 | 0.967 | 0.919 | 0.936 | 0.922 | 0.82 | 0.844 | 0.716 | 0.917 | 0.729 | 0.721 | 0.406 | 0.478 | 0.369 | 0.442 | 0.44 | 0.708 | 0.705 | 0.742 | 0.705 | 0.704
RERF-LC-KJ | 0.983 | 0.791 | 0.807 | 0.707 | 0.682 | 0.435 | 0.443 | 0.485 | 0.491 | 0.502 | 0.721 | 0.633 | 0.737 | 0.411 | 0.521 | 0.701 | 0.529 | 0.553 | 0.503 | 0.61
LK-2 | 1.06 | 1.03 | 1.02 | – | 1.56 | 0.26 | 0.216 | 0.234 | 0.258 | 0.242 | 0.249 | 0.246 | 0.28 | – | 0.307 | 0.202 | 0.168 | 0.193 | 0.191 | 0.186
NCI-H1666 | 0.771 | 0.577 | 0.527 | 0.479 | 0.352 | 0.865 | 0.972 | 0.899 | 0.958 | 0.873 | 0.808 | 0.81 | 0.682 | 0.588 | 0.542 | 1.01 | 0.86 | 0.88 | 0.825 | 0.855
LCLC-103H | 0.971 | 0.992 | 1.1 | 0.931 | 0.939 | 0.507 | 0.443 | 0.496 | 0.477 | 0.526 | 0.518 | 0.474 | 0.498 | 0.43 | 0.425 | 0.461 | 0.487 | 0.472 | 0.432 | 0.535
NCI-H1755 | 0.99 | 0.93 | 0.942 | 0.75 | 1.02 | 0.438 | 0.448 | 0.403 | 0.509 | 0.403 | 0.39 | 0.622 | 0.391 | 0.362 | 0.401 | 0.772 | 0.783 | 0.724 | 0.674 | 0.894
NCI-H520 | 1.02 | 1.24 | 0.698 | 0.472 | 0.842 | 0.68 | 0.698 | 0.74 | 0.681 | 0.716 | 0.299 | 0.204 | 0.18 | 0.243 | 0.263 | 0.234 | 0.218 | 0.216 | – | 0.24
PC-14 | 0.952 | 0.953 | 0.975 | 0.771 | 0.848 | 0.135 | 0.114 | 0.158 | 0.137 | 0.142 | 0.207 | 0.166 | 0.134 | 0.0654 | 0.0425 | 0.916 | 0.717 | 0.975 | 0.82 | 1.41
NCI-H2405 | – | 0.723 | 0.718 | 0.675 | 0.665 | 0.93 | 1.28 | 1.22 | 1.02 | 1.15 | 0.156 | 0.197 | 0.205 | 0.188 | 0.196 | 0.654 | 0.666 | 0.675 | 0.643 | 0.722
NCI-H1395 | – | 1.06 | 1.13 | 0.55 | 0.958 | 0.962 | 0.761 | 0.832 | 0.683 | 0.736 | 0.407 | 0.419 | 0.371 | 0.399 | 0.386 | 0.595 | 0.595 | 0.736 | 0.581 | 0.633
NCI-H596 | 0.373 | 0.452 | 0.492 | 0.532 | 0.443 | 0.517 | 0.483 | 0.676 | 0.533 | 0.433 | 0.54 | 0.588 | 0.583 | 0.494 | 0.503 | 0.893 | 0.649 | 0.855 | 0.797 | 0.556
